This note sets out measurements from patent publication US20200291018A1, “TAM KINASE INHIBITORS” (SYROS PHARMACEUTICALS, INC., priority 2017, published 2020).

One assay deals with T1, AXL (Homo sapiens, UniProt P30530).
T1 sequence (P30530 26-894): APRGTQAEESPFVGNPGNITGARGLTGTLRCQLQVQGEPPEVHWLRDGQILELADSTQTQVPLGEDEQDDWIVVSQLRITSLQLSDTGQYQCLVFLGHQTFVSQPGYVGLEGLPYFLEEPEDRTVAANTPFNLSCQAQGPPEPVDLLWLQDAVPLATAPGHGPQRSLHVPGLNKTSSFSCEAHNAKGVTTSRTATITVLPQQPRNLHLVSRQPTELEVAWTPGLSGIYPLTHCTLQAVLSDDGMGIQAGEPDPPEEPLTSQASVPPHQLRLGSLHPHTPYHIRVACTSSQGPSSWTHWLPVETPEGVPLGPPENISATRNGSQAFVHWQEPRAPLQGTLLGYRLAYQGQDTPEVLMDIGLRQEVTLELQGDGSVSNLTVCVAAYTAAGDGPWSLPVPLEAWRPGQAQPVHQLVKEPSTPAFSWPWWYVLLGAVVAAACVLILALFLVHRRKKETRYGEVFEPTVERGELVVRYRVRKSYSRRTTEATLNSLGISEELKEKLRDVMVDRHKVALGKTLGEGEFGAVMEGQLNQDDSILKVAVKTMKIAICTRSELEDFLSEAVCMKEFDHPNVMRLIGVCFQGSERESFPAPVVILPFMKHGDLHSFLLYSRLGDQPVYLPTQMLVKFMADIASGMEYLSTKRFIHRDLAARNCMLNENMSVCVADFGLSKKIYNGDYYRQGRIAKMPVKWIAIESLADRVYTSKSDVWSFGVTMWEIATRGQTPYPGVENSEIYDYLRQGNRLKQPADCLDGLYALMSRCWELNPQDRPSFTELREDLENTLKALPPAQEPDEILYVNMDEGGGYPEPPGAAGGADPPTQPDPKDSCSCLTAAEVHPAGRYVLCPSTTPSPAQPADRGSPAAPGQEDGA
The experiment in a line: TR-FRET kinase activity assay, AXL. The format is biochemical. The following applies: ATP at Km, 60 minutes. In a few lines:
(§1)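 Steps: compound, enzyme and labeled peptide combined at RT (50 mM HEPES pH 7.5, 10 mM MgCl2, 1 mM DTT); ATP added at Km; 60 min reaction; EDTA quench; Eu-antibody development 30 min in darkness; TR-FRET measured and IC50 fitted.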

Another assay addresses T2, TYRO3 (Homo sapiens, UniProt Q06418).
T2 sequence (Q06418 41-890): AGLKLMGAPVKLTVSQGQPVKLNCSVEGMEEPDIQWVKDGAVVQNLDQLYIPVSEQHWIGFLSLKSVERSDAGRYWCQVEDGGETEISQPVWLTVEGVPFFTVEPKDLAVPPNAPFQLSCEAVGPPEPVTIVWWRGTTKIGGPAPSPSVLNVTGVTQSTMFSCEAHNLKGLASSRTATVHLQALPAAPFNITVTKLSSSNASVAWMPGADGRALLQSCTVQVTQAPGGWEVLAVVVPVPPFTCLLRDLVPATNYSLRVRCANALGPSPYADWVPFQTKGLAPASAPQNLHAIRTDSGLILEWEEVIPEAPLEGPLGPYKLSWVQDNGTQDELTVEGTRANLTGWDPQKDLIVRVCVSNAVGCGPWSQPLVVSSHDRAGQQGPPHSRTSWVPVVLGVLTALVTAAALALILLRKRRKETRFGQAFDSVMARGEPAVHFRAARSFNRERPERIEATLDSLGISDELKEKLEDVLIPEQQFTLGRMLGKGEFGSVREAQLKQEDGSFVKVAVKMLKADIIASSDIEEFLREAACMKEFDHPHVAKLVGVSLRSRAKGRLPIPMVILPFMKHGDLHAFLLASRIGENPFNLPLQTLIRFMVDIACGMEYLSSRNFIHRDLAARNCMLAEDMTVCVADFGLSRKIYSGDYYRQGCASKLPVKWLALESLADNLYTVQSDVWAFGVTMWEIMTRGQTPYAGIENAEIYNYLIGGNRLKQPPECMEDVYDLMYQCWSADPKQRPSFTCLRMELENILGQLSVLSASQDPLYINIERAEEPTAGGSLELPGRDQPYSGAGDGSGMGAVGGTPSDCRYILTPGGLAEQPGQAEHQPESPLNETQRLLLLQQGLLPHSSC
The experiment in a line: TR-FRET kinase activity assay, TYRO3. The assay is classed as biochemical. The following applies: ATP at Km, 60 minutes. The method, boiled down:
as §1

Molecules are shown by their SMILES.

Regarding `CCCC(C)Nc1ncc2c(=O)n(C3CCNCC3)cc([C@H]3CC[C@H](O)CC3)c2n1` (some centres unmarked) [Compound 112], the IC50 against AXL is 100 to 1000 nM; against TYRO3, at most 100 nM.

In the case of `CCCCNc1cc2c(cn1)c(=O)n(C1CCN(C)CC1)cc2[C@H]1CC[C@H](O)CC1` [Compound 116], the IC50 was 100 to 1000 nM against AXL and at most 100 nM against TYRO3.

Turning to `CCCC(C)Nc1ncc2c(=O)n(C3CCN(C)CC3)cc([C@H]3CC[C@H](O)CC3)c2n1` (some centres unmarked) [Compound 117], the IC50 was 100 to 1000 nM against AXL and at most 100 nM on TYRO3.

As to `CC(C)CC(C)Nc1ncc2c(=O)n(C3CCNCC3)cc([C@H]3CC[C@H](O)CC3)c2n1` (some centres unmarked) [Compound 119], the IC50 on AXL is 100 to 1000 nM; at TYRO3 it was at most 100 nM.

Turning to `CS(=O)(=O)N1CC[C@H](Nc2ncc3c(OC4CCOCC4)ncc([C@H]4CC[C@H](O)CC4)c3n2)C1` [Compound 278], the IC50 on AXL was in the range of 1000 to 10000 nM; against TYRO3, 100 to 1000 nM.

As for `COC[C@H](C)Nc1ncc2c(OC3CCOCC3)ncc(-c3ccc(N4CCN(C)CC4)cc3)c2n1` [Compound 279], the IC50 against AXL lay within 1000 to 10000 nM; on TYRO3, 100 to 1000 nM.

With `COC[C@H](C)Nc1ncc2c(OC3CCOCC3)ncc(-c3ccc(C4CCN(C)CC4)cc3)c2n1` [Compound 280], the figures for the IC50 against AXL and on TYRO3 were 100 to 1000 nM and at most 100 nM, respectively.

As for `CCOC[C@H](C)Nc1ncc2c(OC3CCOCC3)ncc([C@H]3CC[C@H](O)CC3)c2n1` [Compound 281], the values for the IC50 against AXL and on TYRO3 were 1000 to 10000 nM and 100 to 1000 nM, respectively.

For `CN1CC(Nc2ncc3c(OC4CCOCC4)ncc([C@H]4CC[C@H](O)CC4)c3n2)CC1=O` (some centres unmarked) [Compound 282], the figures for the IC50 against AXL and on TYRO3 were 1000 to 10000 nM and 100 to 1000 nM, respectively.

For the compound `O=C(O)c1ccc(Nc2ncc3c(OC4CCNCC4)ncc([C@H]4CC[C@H](O)CC4)c3n2)cc1` [Compound 283], the IC50 against AXL and against TYRO3 was at most 100 nM in each case.

For the compound `C[C@@H](CCO)Nc1ncc2c(OC3CCOCC3)ncc([C@H]3CC[C@H](O)CC3)c2n1` [Compound 284], the IC50 lay in the range of 1000 to 10000 nM against AXL and 100 to 1000 nM at TYRO3.

Regarding `COC[C@H](C)Nc1cc2c(cn1)c(OC1CCOCC1)ncc2[C@H]1CC[C@H](O)CC1` [Compound 285], the IC50 against AXL fell in the range of 1000 to 10000 nM; at TYRO3, 100 to 1000 nM.

As to `O[C@H]1CC[C@H](c2cnc(OC3CCOCC3)c3cnc(NCCC(F)(F)F)nc32)CC1` [Compound 286], the IC50 at AXL and against TYRO3 was 100 to 1000 nM in each case.

For the compound `CC[C@H](C)Nc1ncc2c(O[C@H]3CC[C@](C)(O)CC3)ncc([C@H]3CC[C@H](O)CC3)c2n1` [Compound 287], the IC50 on AXL and against TYRO3 was 100 to 1000 nM each time.

`CC(C)Nc1ncc2c(OC3CCOCC3)ncc(-c3cccc(S(=O)(=O)N(C)C)c3)c2n1` [Compound 288]: the half-maximal inhibitory concentration (IC50) at AXL was 100 to 1000 nM; against TYRO3 it was at most 100 nM.

For `COC[C@H](C)Nc1ncc2c(OC3CCN(S(C)(=O)=O)CC3)ncc([C@H]3CC[C@H](O)CC3)c2n1` [Compound 289], the IC50 against AXL and against TYRO3 was 100 to 1000 nM in each case.

As to `CC[C@H](C)Nc1ncc2c(=O)n([C@H]3CC[C@H](N)CC3)cc([C@H]3CC[C@H](O)CC3)c2n1` [Compound 290], the IC50 is 100 to 1000 nM at AXL and at most 100 nM against TYRO3.

Take `CC1(Nc2ncc3c(OC4CCNCC4)ncc([C@H]4CC[C@H](O)CC4)c3n2)CC1` [Compound 291]: the IC50 against AXL was 100 to 1000 nM; on TYRO3, at most 100 nM.

Regarding `C[C@@H](CC#N)Nc1ncc2c(OC3CCOCC3)ncc([C@H]3CC[C@H](O)CC3)c2n1` [Compound 292], the IC50 at AXL and at TYRO3 was 100 to 1000 nM each time.

For `COC[C@H](C)Nc1ncc2c(OC3CCOCC3)ncc([C@H]3CC[C@](C)(O)CC3)c2n1` [Compound 293], the IC50 against AXL was 100 to 1000 nM; against TYRO3 it was at most 100 nM.

In the case of `COC[C@H](C)Nc1ncc2c(OC3CCOCC3)ncc([C@H]3CC[C@@](C)(O)CC3)c2n1` [Compound 294], the figures for the IC50 at AXL and against TYRO3 were 1000 to 10000 nM and 100 to 1000 nM, respectively.

Consider `COC[C@H](C)Nc1ncc2c(O[C@H]3C[C@H](O)C3)ncc([C@H]3CC[C@H](O)CC3)c2n1` [Compound 295], for which the IC50 against AXL was 100 to 1000 nM; against TYRO3, at most 100 nM.

Regarding `COC[C@H](C)Nc1ncc2c(O[C@H]3C[C@@H](O)C3)ncc([C@H]3CC[C@H](O)CC3)c2n1` [Compound 296], the IC50 was 100 to 1000 nM against AXL and at most 100 nM at TYRO3.

Consider `CNC(=O)Nc1ccc(-c2cnc(OC3CCOCC3)c3cnc(N[C@@H](C)COC)nc23)cc1` [Compound 297], for which the values for the IC50 at AXL and against TYRO3 were 1000 to 10000 nM and 100 to 1000 nM, respectively.

As to `CC[C@H](C)Nc1ncc2c(O[C@H]3CC[C@@H](N(C)C)C3)ncc([C@H]3CC[C@H](O)CC3)c2n1` [Compound 298], the half-inhibitory concentration (IC50) was 100 to 1000 nM against AXL and at most 100 nM against TYRO3.

On to `O[C@H]1CC[C@H](c2cnc(OC3CCNCC3)c3cnc(Nc4ccc(Cl)c(Cl)c4)nc32)CC1` [Compound 299], for which the IC50 against AXL and against TYRO3 was at most 100 nM in each case.

For the compound `CCc1cc(Nc2ncc3c(OC4CCNCC4)ncc([C@H]4CC[C@H](O)CC4)c3n2)ccc1Cl` [Compound 300], the IC50 against AXL and against TYRO3 was at most 100 nM each time.

In the case of `COC[C@H](C)Nc1ncc2c(OC3CCOCC3)ncc(-c3ccc(O)cc3)c2n1` [Compound 301], the IC50 was 1000 to 10000 nM against AXL and 100 to 1000 nM against TYRO3.

For the compound `COC[C@H](C)Nc1ncc2c(O[C@H]3CCNCC3(F)F)ncc([C@H]3CC[C@H](O)CC3)c2n1` [Compound 302], the values for the IC50 at AXL and against TYRO3 were 1000 to 10000 nM and 100 to 1000 nM, respectively.

For the compound `COC[C@H](C)Nc1ncc2c(C)ncc([C@H]3CC[C@H](O)CC3)c2n1` [Compound 303], the values for the IC50 on AXL and on TYRO3 were 100 to 1000 nM and at most 100 nM, respectively.

With `C[C@@H](CF)Nc1ncc2c(OC3CCOCC3)ncc([C@H]3CC[C@H](O)CC3)c2n1` [Compound 304], the IC50 at AXL and against TYRO3 was 100 to 1000 nM in each case.

Take `C[C@@H](CC(F)(F)F)Nc1ncc2c(OC3CCOCC3)ncc([C@H]3CC[C@H](O)CC3)c2n1` [Compound 305]: the IC50 at AXL is 100 to 1000 nM; on TYRO3, at most 100 nM.

`CC[C@H](C)Nc1ncc2c(OC3CCN(c4ncccn4)CC3)ncc([C@H]3CC[C@H](O)CC3)c2n1` [Compound 306]: the IC50 against AXL and against TYRO3 was 100 to 1000 nM throughout.

Turning to `COC[C@H](C)Nc1ncc2c(OC3CCOCC3)ncc(-c3cccc(S(=O)(=O)N(C)C)c3)c2n1` [Compound 307, (S)-3-(2-((1-methoxypropan-2-yl)amino)-5-((tetrahydro-2H-pyran-4-yl)oxy)pyrido[4,3-d]pyrimidin-8-yl)-N,N-dimethylbenzenesulfonamide], the results for the IC50 on AXL and against TYRO3 were 1000 to 10000 nM and 100 to 1000 nM, respectively.

For the compound `COC[C@H](C)Nc1ncc2c(O[C@@H]3CCNCC3(F)F)ncc([C@H]3CC[C@H](O)CC3)c2n1` [Compound 308], the IC50 was in the range of 1000 to 10000 nM against AXL and 100 to 1000 nM on TYRO3.

As to `COC[C@H](C)Nc1ncc2c(OC3CCOCC3)ncc(-c3ccc(N)cc3)c2n1` [Compound 309], the IC50 on AXL lay in the range of 1000 to 10000 nM; against TYRO3, 100 to 1000 nM.

Take `COCCN1C(C)(C)CC(Oc2ncc([C@H]3CC[C@H](O)CC3)c3nc(N[C@@H](C)COC)ncc23)CC1(C)C` [Compound 310]: the IC50 on AXL and on TYRO3 was at most 100 nM throughout.
